Patent US20180045675A1, “SINGLE-CELL INTRACELLULAR NANO-PH PROBES” (The Regents of the University of California, priority 2015, published 2018)

Tested on: MDA-MB-231 cells
Assay: real-time intracellular pH measurement with nano-pH probe during chloride channel blocker exposure
Format: cell-based, human
Conditions: single MDA-MB-231 cells
Source text: Sensing setup. To carry out analytical characterization experiments of chitosan-modified nanopipette sensors, a two-electrode setup connected to a potentiostat (1030C, CH Instruments Inc.) was used for sensing. A 125 μm platinum wire (Goodfellow Corporation) placed into nanopipettes filled with electrolyte served as the working electrode while a pseudo Ag/AgCl electrode placed in bulk solution (PBS or cell media) served as the reference electrode. Linear sweep voltammetry was utilized for all in vitro measurements with a scan rate of 0.1 V/sec.
Intracellular measurements were performed by combining the potentiostat and scanning ion conductance microscope (SICM) with a low-noise mechanical switch. The SICM setup consisted of an Axopatch 200B amplifier (Molecular Devices) for current feedback measurements, a MP-285 motorized micromanipulator (Sutter Instrument) for coarse positioning of the nano-pH probe, a piezo stage (NanoCube, Physik Instrumente) for fine positioning and insertion of the nano-pH probe sensors, and a programmable interface for hardware control of the setup. This system is run by custom software written in LabVIEW (National Instruments). All experiments with cells were conducted on an inverted fluorescence microscope (Olympus IX 70) equipped with an eyepiece camera (Dino-Eye, Big C).
Cell culture. […]
Chitosan-modified nanopipettes were inserted to individual cells using a customized scanning ion conductance microscope which detects current feedback for positioning the nanopipettes. […] After the insertion of the nano-pH probe into a cell, linear sweep voltammograms were recorded and the current-responses at a bias potential of 0.6 V were used to calculate the intracellular pH levels of single cells.
The present nano-pH probe can be used to monitor intracellular pH changes during drug therapy. […] Conventionally, the change in pH has been measured indirectly by introduction of fluorescent dye (BCECF-AM)^47,48. […] The measured pH levels stabilized by 4 min post NPPB introduction. […]

Q: With `O=C(O)c1cc([N+](=O)[O-])ccc1NCCCc1ccccc1` [NPPB, 5-nitro-2-(3-phenylpropylamino)-benzoate] as the molecule, how does the “time by which measured pH levels stabilized post NPPB introduction” value (100 μM NPPB) read?
A: ≤ 4 min

Q: What about the “time within which intracellular pH level dropped significantly after introduction of NPPB” value (100 μM NPPB) of the same molecule?
A: ≤ 2 min

Q: And the “lowest intracellular pH level after introduction of NPPB” value (100 μM NPPB in cell media, readings every 21 sec for 7 min, baseline around 7)?
A: 2.5
